Converted amounts (≈) assume the structure as drawn. Bounds are passed on as bounds.

The subject of one data set is Anas platyrhynchos. Conditions: acute; oral; unspecified; mortality.
The subject of the next data set is Aphidius rhopalosiphi. The following applies: not reported; mortality.
The next data set has as its system Apis mellifera. Conditions: acute; duration: 48 hours; oral; unspecified; mortality.
For the next data set, the system named is Bibionidae. Conditions: chronic/long-term; duration: 28 days.
A further data set deals with Canidae. The following applies: chronic; duration: 1 years; oral; Dog Other; clinical signs.
In a further data set the test system is Colinus virginianus. Conditions: for LD50: acute, oral, mortality.
A further data set concerns Daphnia magna. The following applies: chronic/long-term; duration: 21 days; reproduction.
A further data set concerns Mus musculus. Conditions: acute; oral; mortality.
The test system of another data set is Tagia sp. The following applies: acute; duration: 14 days; mortality.

As usually defined, the NOAEL is the highest dose or exposure tested at which no adverse effect was seen. For the compound `Cc1c(COC(=O)[C@@H]2[C@H](/C=C(\Cl)C(F)(F)F)C2(C)C)cccc1-c1ccccc1` [Bifenthrin], the LD50 in the data set on Anas platyrhynchos is above 2150 mg/kg; with Apis mellifera, 0.1 µg/piece; in the data set on Colinus virginianus (diet) it was 569 mg/kg-day; in the data set on Colinus virginianus it was 1800 mg/kg; with Mus musculus, 42.5 mg/kg. Further, the LEL in the data set on Aphidius rhopalosiphi amounted to 60 g/ha. For the same compound, the NOEC in the data set on Bibionidae was determined as 0.00032 mg/L; in the data set on Colinus virginianus (reproduction developmental), 75 mg/kg-day; with Daphnia magna, 9.5e-07 mg/L; in the data set on Oncorhynchus mykiss (chronic/long-term, duration: 30 days, other) it was 1.2e-05 mg/L. The NOAEL with Canidae is 1.5 mg/kg-day; in the data set on Rattus norvegicus (developmental, development), above 2 mg/kg-day; in the data set with Rattus norvegicus (reproduction developmental, reproduction) it was 3 mg/kg-day; with Rattus norvegicus (subchronic, duration: 90 days, oral, neurology), 2.9 mg/kg-day. In addition, the LC50 in the data set on Oncorhynchus mykiss (acute, duration: 96 hours, mortality) is 0.1 ng/mL (≈ 0.236 nM); in the data set on Tagia sp., above 16 mg/kg.
